{"source": "patent US10150793B2", "about": "“Antagonists of CB1 receptor” (INSERM (Institut National de la Santé et de la Recherche …, priority 2011, dated 2018)", "key": {"CB1 receptor [1]": {"target": "CB1 receptor (Mus musculus, UniProt P47746)", "sequence (P47746 whole entry)": "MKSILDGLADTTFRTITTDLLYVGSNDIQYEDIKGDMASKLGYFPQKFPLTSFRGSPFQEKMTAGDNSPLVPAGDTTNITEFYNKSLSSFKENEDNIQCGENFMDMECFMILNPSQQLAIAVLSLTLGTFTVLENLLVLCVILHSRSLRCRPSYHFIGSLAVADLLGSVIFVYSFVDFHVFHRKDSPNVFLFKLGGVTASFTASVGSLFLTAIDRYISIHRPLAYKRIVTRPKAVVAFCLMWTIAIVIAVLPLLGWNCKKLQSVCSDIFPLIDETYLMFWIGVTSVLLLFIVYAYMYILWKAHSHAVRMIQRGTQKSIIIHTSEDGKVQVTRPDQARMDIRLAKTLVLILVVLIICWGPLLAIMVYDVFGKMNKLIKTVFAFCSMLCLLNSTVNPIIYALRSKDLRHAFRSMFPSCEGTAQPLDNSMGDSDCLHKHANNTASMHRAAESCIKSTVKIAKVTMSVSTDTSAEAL", "assay": "THC-induced increase in food intake in mice", "type": "in vivo", "set-up": "tissue Charles River Laboratories (France) (animals); host or cells: living mice, whole animal", "settings": "for effect on THC-induced increase in food intake (hyperphagia) in mice: 24 h-food deprived C57B1/6 mice, THC 1 mg/kg, compound 2 mg/kg sc", "protocol": "(§1) Food intake was evaluated by measuring consumption of food in the home cages of the animals. For each animal, 50-100 g of standard laboratory chow (U.A.R., France) was placed in the cleaned home cage. The remaining amount of food was weighted 1 h later and the amount of food consumed calculated.\nOther pregnenolone derivatives (Table 4) for which the metabolism in downstream active steroids was reduced were tested for their ability to inhibit: 1. effects of the THC-induced cannabinoid tetrade (decrease in body temperature and in locomotor activity, (THC 10 mg/kg, compounds 6 mg/kg 15-30 min before THC) that is recognized as a sound method to evaluate the activation of the CB1 receptor; 2. THC-induced increase in food intake a typical effect of CB1 activation (THC between 0.5 and 1 mg/kg, compounds between 2 and 4 mg/kg 30 min before THC); 3. the increase in TNFalpha induced by LPS, another effects typical of CB1 […] (compounds 6 mg/kg 15 min before LPS). For each compound and each test independent groups of animals were used (at least n=6 per compound/per test)."}, "CB1 receptor [2]": {"target": "T1, CB1 receptor (Rattus norvegicus, UniProt P20272)", "T1 sequence (P20272 whole entry)": "as the sequence (P47746 whole entry) above, with D95E counted along it", "assay": "THC inhibition of AMPAR-mediated EPSC, patch clamp in nucleus accumbens slices", "type": "cell-based, rats", "set-up": "from tissue; host or cells: acute coronal brain slices, nucleus accumbens", "settings": "slices pre-treated with Pregnenolone 100 nM"}, "[3]": {"assay": "Diet induced obesity, body weight and body composition", "type": "in vivo, C57BL/6J mice", "protocol": "2-months old male C57BL/6J mice were ad libitum fed a 60% high-fat diet (HFD; Catalog #D12492, Research Diets, New Brunswick, N.J.) for 8 weeks and subsequently treated either with pegnenolone or vehicle. Homogeneous distribution of the animals in the 3 treatment groups was guaranteed by matching their body weight, fat mass and fasting glucose levels before the start of the pharmacological treatments.\nFat mass and lean mass were assessed in vivo using an EchoMRI analyzer (EchoMedical Systems, Houston, Tex.) before the mice were placed on the HFD, as well as immediately before and at the end of the chronic treatment with pregnegnolone or its vehicle.\nIn this example the inventors analyzed the ability of pregnenolone to inhibit the effects of CB1 activation in the context of obesity. The effects of pregnenolone on metabolic disorders were studied using the model of diet induced obesity (DIO) in mice. In this procedure animals are maintained on a high fat diet (60% of fat) which progressively induce obesity. After eight weeks on this diet which already induced overweight and excessive fat accumulation in these animals the treatment with pregnenolone was started for thirty days (once a day 2 mg/kg or 5 mg/kg, n=8)."}, "CB1 receptor [4]": {"target": "T1, CB1 receptor", "assay": "THC-induced increase in food intake in ad libitum fed Wistar rats", "type": "in vivo", "set-up": "tissue Charles River Laboratories (France) (animals); host or cells: living Wistar rats, whole animal", "protocol": "as §1"}, "GABA-A receptors": {"system": "GABA-A receptors", "assay": "GABA-A receptors-mediated mIPSC in nucleus accumbens principal neurons", "type": "cell-based, mouse", "protocol": "GABA-A receptors-mediated currents: mIPSC were recorded in the presence of the AMPAR and NMDAR antagonists (DNQX 20 μM and AP-5 50 μM, respectably). mEPSC-mIPSC analysis: Typically, after breaking in, cells were left to equilibrate for 20 minutes and the subsequent 10 minutes recording of mEPSC-mIPSC was used to analysis. mEPSC-mIPSC were detected using a template generated from averaging several typical events (Clampfit 10, Molecular Devices). The template was slid along the data trace one point at a time. At each position, the template was optimally scaled and offset to fit the data. A lower-amplitude threshold of 7 pA and 10 pA were applied for mEPSC and mIPSC, respectably, equivalent to 2.5SD of baseline noise. For each cell, the kinetics of mEPSC-mIPSC was measured from the average event using Clampfit 10. To estimate decay times, a two exponentials curve was fitted between 5 and 95% of the decay phase of the current given by the following equation: y(t)=A1·e^(−t/τ1)+A2·e^(−t/τ2), where A is the amplitude, t is the time and τ is the decay time constant. The weighted tau was then calculated.\nIn order to evaluate the effect of pregnenolone on the function of post-synaptic GABA we recorded mIPSC and compared its amplitude and decay time between groups. We observed that mIPSC amplitude and decay time were similar between controls (amplitude: 17.9±0.8 pA; decay time: 11.1±0.3 ms) and slices pre-treated with pregnenolone (100 nM and 1 μM, respectively; amplitude: 17.3±0.4 pA, 15.9±0.4 pA; decay time: 10.2±0.4 ms, 10.8±0.5 ms)."}, "NMDA receptors": {"system": "NMDA receptors", "assay": "Whole cell currents induced by NMDA in nucleus accumbens principal neurons", "type": "cell-based, mouse", "settings": "−30 mV", "protocol": "NMDAR-mediated currents: Changes in holding currents induced by NMDA were measured in cells voltage clamped at −30 mV, to relieve NMDAR from the voltage-dependent magnesium block. AMPAR and GABA-A receptors were blocked with DNQX 20 μM and picrotoxine 50 μM, respectably.\nTo quantify NMDA receptors-mediated currents we used a different strategy. Because of its slow kinetics and voltage dependence, the isolation of NMDAR-mediated mEPSC is not as reliable as for AMPAR-mediated currents. Thus, we decided to record whole cell currents in response exogenously applied NMDA. In NAc PN voltage-clamped at −30 mV, bath perfusion of NMDA 25 μM for 1 minute induced an inward current of similar magnitude in control slices (115±15.5 pA) and in slices pre-treated with pregnenolone (100 nM: 107±9.6 pA; 1 μM: 108.9±12.5 pA; p=0.91) (FIG. 17 B)."}, "[5]": {"settings": "pregnenolone 5 mg/kg, magnetic resonance"}}}
{"smiles": "CC(=O)[C@H]1CC[C@H]2[C@@H]3CC=C4C[C@@H](O)CC[C@]4(C)[C@H]3CC[C@]12C", "note": "[Pregnenolone, 5-Pregnen-3β-ol-20-one]", "values": [{"measurement": "effect on THC-induced increase in food intake (hyperphagia) in mice", "setting": "CB1 receptor [1]", "value": "decreased THC-induced hyperphagia"}, {"measurement": "effect on THC-induced increase in food intake (hyperphagia) in mice", "setting": "CB1 receptor [1]; listed as pregnenolone", "value": "suppressed the increase in food intake"}, {"measurement": "dose inhibiting THC-induced increase in food-intake (first effective dose)", "setting": "CB1 receptor [1]; dose response in 24 h-food deprived mice, 0.5 mg/kg dose was ineffective", "value": 1, "unit": "mg/kg"}, {"measurement": "inhibition of EPSC amplitude by THC", "setting": "CB1 receptor [2]", "value": "15.1±1.8 % of inhibition"}, {"measurement": "effect on food intake in DIO model", "setting": "[3]; high fat diet, food intake over 24 hours", "value": "did not modify food intake"}, {"measurement": "effect on body weight", "setting": "[3]; high fat diet, once a day 2 or 5 mg/kg for thirty days, effect after 15 days", "value": "decreased body weight"}, {"measurement": "effect on fat mass", "setting": "[3]; [5]", "value": "the increase in fat mass was suppressed"}, {"measurement": "effect on lean mass", "setting": "[3]; [5]", "value": "the decrease in lean mass was blunted"}, {"measurement": "effect on THC-induced food intake in sated rats", "setting": "CB1 receptor [4]; THC 0.5 mg/kg, pregnenolone 30 min before THC", "value": "dose-dependently decreased THC-induced food intake"}, {"measurement": "effect on basal food intake", "setting": "CB1 receptor [4]; pregnenolone 2 mg/kg, FIG. 3 A, B", "value": "did not significantly modified basal food intake"}, {"measurement": "dose with statistically significant effect on THC-induced food intake", "setting": "CB1 receptor [4]; sated rats, THC 0.5 mg/kg", "value": 2, "unit": "mg/kg"}, {"measurement": "mIPSC amplitude", "setting": "GABA-A receptors; slices pre-treated with 100 nM", "value": "17.3±0.4", "unit": "pA"}, {"measurement": "mIPSC decay time", "setting": "GABA-A receptors; slices pre-treated with 100 nM", "value": "10.2 ± 0.4", "unit": "ms"}, {"measurement": "mIPSC amplitude", "setting": "GABA-A receptors; slices pre-treated with 1 μM", "value": "15.9±0.4", "unit": "pA"}, {"measurement": "mIPSC decay time", "setting": "GABA-A receptors; slices pre-treated with 1 μM", "value": "10.8 ± 0.5", "unit": "ms"}, {"measurement": "inward current induced by NMDA 25 μM", "setting": "NMDA receptors; slices pre-treated with 100 nM", "value": "107±9.6", "unit": "pA"}, {"measurement": "inward current induced by NMDA 25 μM", "setting": "NMDA receptors; slices pre-treated with 1 μM", "value": "108.9±12.5", "unit": "pA"}]}
